Article PMC10374969, “SVCT2/SLC23A2 is a sodium-dependent urate transporter: functional properties and practical application” (The Journal of Biological Chemistry, 2023)

How the values were obtained:
Format in all cases: cell-based
[1] = molecular target: T1, human SVCT2 (SVCT2/SLC23A2) (Homo sapiens, UniProt Q9UGH3); test: inhibition of [[…]-14C]-urate uptake into transfected HEK293 cells, mock subtracted
T1 construct: full-length wild type, 650 aa, C-terminal EGFP tag (pEGFP-N1), transiently expressed in HEK293 cells

[2] = molecular target: T2, mouse Svct2 (Svct2/Slc23a2) (Mus musculus, UniProt Q9EPR4); test: as above
T2 construct: full-length, 648 aa, C-terminal EGFP tag (pEGFP-N1), transiently expressed in HEK293 cells

[3] = molecular target: T1, human SVCT2 (SVCT2/SLC23A2); test: inhibition of [[…]-14C]-ascorbate uptake into transfected HEK293 cells

T1 sequence (Q9UGH3 whole entry): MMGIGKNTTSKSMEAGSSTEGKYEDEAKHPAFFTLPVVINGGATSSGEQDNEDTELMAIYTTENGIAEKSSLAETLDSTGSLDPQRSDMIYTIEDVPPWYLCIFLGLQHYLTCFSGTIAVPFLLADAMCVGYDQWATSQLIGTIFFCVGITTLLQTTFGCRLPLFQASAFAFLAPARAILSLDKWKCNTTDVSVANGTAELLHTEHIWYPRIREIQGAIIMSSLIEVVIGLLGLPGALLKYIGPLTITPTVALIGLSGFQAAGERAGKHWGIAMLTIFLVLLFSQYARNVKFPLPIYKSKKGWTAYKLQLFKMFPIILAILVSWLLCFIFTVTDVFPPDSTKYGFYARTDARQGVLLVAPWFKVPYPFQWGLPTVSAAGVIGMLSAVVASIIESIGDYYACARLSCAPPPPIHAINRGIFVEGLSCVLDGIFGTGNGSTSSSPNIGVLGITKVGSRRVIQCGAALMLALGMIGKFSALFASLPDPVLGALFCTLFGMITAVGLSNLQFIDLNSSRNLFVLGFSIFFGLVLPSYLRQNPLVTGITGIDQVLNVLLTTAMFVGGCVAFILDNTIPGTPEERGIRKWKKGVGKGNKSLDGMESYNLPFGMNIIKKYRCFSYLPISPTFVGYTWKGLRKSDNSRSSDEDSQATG
T2 sequence (Q9EPR4 whole entry): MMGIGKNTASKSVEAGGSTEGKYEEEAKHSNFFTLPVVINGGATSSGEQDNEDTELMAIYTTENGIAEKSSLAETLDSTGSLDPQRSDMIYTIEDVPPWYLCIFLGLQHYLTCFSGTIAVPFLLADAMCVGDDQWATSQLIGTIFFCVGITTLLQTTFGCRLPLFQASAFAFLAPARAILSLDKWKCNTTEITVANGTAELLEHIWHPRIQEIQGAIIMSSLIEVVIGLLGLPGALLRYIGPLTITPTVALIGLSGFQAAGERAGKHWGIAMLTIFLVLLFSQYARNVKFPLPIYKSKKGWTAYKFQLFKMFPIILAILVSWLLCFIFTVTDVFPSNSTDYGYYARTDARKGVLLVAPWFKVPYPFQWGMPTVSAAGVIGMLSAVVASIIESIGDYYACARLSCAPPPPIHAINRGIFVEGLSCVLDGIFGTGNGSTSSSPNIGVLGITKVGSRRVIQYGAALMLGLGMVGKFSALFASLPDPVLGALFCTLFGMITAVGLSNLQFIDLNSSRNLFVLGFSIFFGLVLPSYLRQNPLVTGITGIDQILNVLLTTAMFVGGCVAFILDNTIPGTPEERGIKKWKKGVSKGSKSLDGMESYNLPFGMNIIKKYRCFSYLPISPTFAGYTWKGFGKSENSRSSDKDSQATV

| Structure (SMILES) | IC50 [1] [µM] | IC50 [2] [µM] | inhibition at 500 µM [3] [%] |
| --- | --- | --- | --- |
| O=C1O[C@H]([C@@H](O)CO)C(O)=C1O [ascorbate] | 36.6 | 30.3 | – |
| O=c1[nH]c(=O)c2[nH]c(=O)[nH]c2[nH]1 [urate] | – | – | ~20 |
